Laboratory results as given in patent US10064873B2, “Compounds and compositions for treating HIV with derivatives of Betulin” (GlaxoSmithKline LLC, priority 2011, dated 2018).
Read-outs that look alike come from different tables or passages of the source.

How the values were obtained:
HIV-1 (strain IIIB) = experiment: MT4 Cell Antiviral Assay (propidium iodide or MTS readout); type: cell-based; conditions: Human immunodeficiency virus 1, IIIB, read-out: expected range of IC50 values (control and standard)
[1] = system: NL4-3 strain with V370A site directed mutant polymorphism; experiment: MT4 antiviral assay, NL4-3 strain with V370A site directed mutant polymorphism; type: cell-based, HIV-1; conditions: Human immunodeficiency virus 1, NL43, MT4 cells
HIV NL4-3 wt = experiment: MT4 antiviral assay, NL4-3 strain wild type; type: cell-based, HIV-1; conditions: Human immunodeficiency virus 1, NL43, MT4 cells
HIV [2] = conditions: cited from earlier work
HIV-1 strain JR-CSF = experiment: Modified PBMC (PBL) assay with human serum titration; type: cell-based; conditions: for IC50: Human immunodeficiency virus 1, PBMC
Method: In this assay, 8×10^6 cells from pooled donors were incubated with virus for 1 hour, followed by centrifugation for 1 hour. Cells were then gently re-suspended and incubated an additional 2 hours.

HIV [3] = experiment: Standard PBMC assay (0% human serum); type: cell-based; conditions: Human immunodeficiency virus 1, PBMC, 168 h, PBMCs, 7 days
Method: Following incubation in both the standard and modified assays, supernatants were assayed for reverse transcriptase (RT) activity and p24 antigen content by ELISA and spectrophotometric analysis at 450 nM.

Structure (SMILES): Cc1cn([C@H]2C[C@H](N=[N+]=[N-])[C@@H](CO)O2)c(=O)[nH]c1=O [3′-azido-3′-deoxythymidine]
- IC50 (HIV-1 (strain IIIB)): 40 to 120 nM

Structure (SMILES): C=C(C)[C@@H]1CC[C@]2(C(=O)O)CC[C@]3(C)[C@H](CC[C@@H]4[C@@]5(C)CC[C@H](OC(=O)CC(C)(C)C(=O)O)C(C)(C)[C@@H]5CC[C@]43C)[C@@H]12 [Bevirimat]
- EC50 ([1]; read-out: EC50, MT4 antiviral assay NL4-3 strain with V370A polymorphism): 6060 nM
- EC50 ([1]; read-out: MT4 NL. V370A EC50): 6060 nM
- EC50 (HIV NL4-3 wt; Consensus Clade B Sp1 Genotype, read-out: MT4 NL. wt* EC50): 223 nM
- EC50 (HIV NL4-3 wt; read-out: EC50, MT4 antiviral assay NL4-3 strain / HIV wild type potency): 223 nM
- Cmin target (HIV [2]; clinical, McCallister et al. poster 2008): > 20000 ng/mL
- mean reduction of HIV viral load (HIV [2]; patients with trough levels >=20 μg/mL and no baseline Gag polymorphisms at Q369, V370 or T371): 1.3 log10/mL
- effect of human serum on IC50 values (HIV-1 strain JR-CSF; 10-40% human serum vs standard assay): large increase in the IC50 values
- IC50 (HIV-1 strain JR-CSF; 10%, 20%, 30% and 40% human serum, unit mM, read-out: IC50 in the presence of human serum): 1380 to 13000 nM
- fold change in the IC50 value in the presence of 100% serum (HIV-1 strain JR-CSF; extrapolated, compared to control experiment): 2,310 fold
- IC50 (HIV [3]): 9.76 nM

Structure (SMILES): CC(C)C1=C2[C@H]3CC[C@@H]4[C@@]5(C)CC[C@H](OC(=O)CC(C)(C)C(=O)O)C(C)(C)[C@@H]5CC[C@@]4(C)[C@]3(C)CC[C@@]2([C@@H](O)CN(CCN(C)C)Cc2ccc(Cl)cc2)CC1=O [Compound 51, 4-(((3aR,5aR,5bR,7aR,9S,11aR,11bR,13aS)-3a-((R)-2-((4-Chlorobenzyl)(2-(dimethylamino)ethyl)amino)-1-hydroxyethyl)-1-isopropyl-5a,5b,8,8,11a-pentamethyl-2-oxo-3,3a,4,5,5a,5b,6,7,7a,8,9,10,11,11a,11b,12,13,13a-octadecahydro-2H-cyclopenta[a]chrysen-9-yl)oxy)-2,2-dimethyl-4-oxobutanoic acid]
- IC50 (HIV-1 strain JR-CSF; read-out: estimated IC50 for 100% human serum, linear extrapolation from normalized IC50 values): 0.33 nM
- IC50 (HIV-1 strain JR-CSF; 10%, 20%, 30% and 40% human serum, read-out: IC50 in the presence of human serum): 0.52 to 3.07 nM
